Assay results: US20160158200A1, “Combinations of Hepatitis C Virus Inhibitors” (priority 2013, published 2016)

Columns and labels:
Assay type in all cases: cell-based
[1] = test system: HCV genotype 1a Y93H variant with tyrosine 93 changed to histidine in the NS5A protein; assay: microbe, parasite or virus in culture; conditions: genotype 1a Y93H replicon; test compound titrated with compound N47 fixed at 200 nM versus singly
Description: Combinations can be examined for synergistic activity using a variety of putative NS5A-targeting compounds and a variety of test compounds. […] The test compound can be chosen from compounds exemplified below, which were prepared by methods known in the art, or from others disclosed in the literature.
Similarly, BMS-790052 can be tested singly and in combination with a fixed amount of compound N47 in the HCV replicon cell based assay consisting of the genotype 1a Y93H variant with tyrosine 93 changed to histidine in the NS5A protein.

[2] = test system: HCV genotype 1a L31V variant with leucine 31 changed to valine in the NS5A protein; assay: microbe, parasite or virus in culture; conditions: genotype 1a L31V replicon; test compound titrated with compound N47 fixed at 200 nM versus singly
[3] = test system: HCV genotype-1a variant with glutamine 30 changed to glutamate in the NS5A protein; conditions: test compound titrated with BMS-790052 fixed at 200 nM; genotype 1a Q30E replicon
Summary of the method: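 Synergy was assessed by combining several fixed amounts of an NS5A-targeting compound with a titration of the second compound of interest.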

Row | Structure (SMILES) | Fold-Synergistic G-1a (Y93H) [1] [fold] | Fold-Synergistic G-1a (L31V) [2] [fold] | Fold-Synergistic 1a (Q30E) [3] [fold]
1 | O=C(Nc1ccc(/C=C/c2ccc(NC(=O)[C@@H]3CCCN3C(=O)Cc3cccnc3)nc2)cn1)[C@@H]1CCCN1C(=O)Cc1cccnc1 | <10 | <10 | 
2 | COC(=O)N[C@H](C(=O)N1CCC[C@H]1c1ncc(-c2ccc(-c3ccc(-c4cnc([C@@H]5CCCN5C(=O)[C@@H](NC(=O)OC)C(C)C)[nH]4)cc3)cc2)[nH]1)C(C)C | >100 | >100 | 
3 | COc1ccc(-c2ccc(-c3cnc([C@@H]4CCCN4C(=O)[C@@H](c4ccccc4)N(C)C)[nH]3)cc2)cc1-c1cnc([C@@H]2CCCN2C(=O)[C@@H](c2ccccc2)N(C)C)[nH]1 | <10 | <10 | 
4 | COC(=O)N[C@H](C(=O)N1CCC[C@H]1c1ncc(-c2ccc(-c3ncc(-c4cnc([C@@H]5CCCN5C(=O)[C@@H](NC(=O)OC)C(C)C)[nH]4)cn3)cc2)[nH]1)C(C)C | >100 | >100 | 
5 | COC(=O)N[C@H](C(=O)N1CCC[C@H]1C(=O)Nc1cc(-c2ncc(-c3ccc4nc([C@@H]5CCCN5C(=O)[C@@H](c5ccccc5)N(C)C)[nH]c4c3)o2)ccc1C)C(C)C | <10 | <10 | 
6 | COC(=O)N[C@H](C(=O)N1CCC[C@H]1c1nc(-c2ccc(-c3ccc4nc([C@@H]5CCCN5C(=O)[C@@H](NC(=O)OC)C(C)C)[nH]c4c3)cc2)c[nH]1)C(C)C | >100 | >10 | 
7 | COC(=O)N[C@H](C(=O)N1CCC[C@H]1c1nc(-c2cccc(-c3ccc4nc([C@@H]5CCCN5C(=O)[C@@H](NC(=O)OC)C(C)C)[nH]c4c3)c2)c[nH]1)C(C)C | <10 | <10 | 
8 | COC(=O)N[C@H](C(=O)N1CCC[C@H]1c1ncc(-c2ccc([C@H]3CC[C@@H](c4ccc(-c5cnc([C@@H]6CCCN6C(=O)[C@@H](NC(=O)OC)C(C)C)[nH]5)cc4)N3c3ccc(F)cc3)cc2)[nH]1)C(C)C | >10 |  | 
9 | COC(=O)N[C@H](C(=O)N1CCC[C@H]1c1ncc(-c2ccc([C@H]3CC[C@H](c4ccc(-c5cnc([C@@H]6CCCN6C(=O)[C@@H](NC(=O)OC)C(C)C)[nH]5)cc4)N3c3ccc(F)cc3)cc2)[nH]1)C(C)C | >10 |  | 
10 | CC(C)[C@H](NC(=O)c1ccc(C#N)s1)c1ncc(-c2ccc(-c3ccc(-c4cnc([C@@H](NC(=O)c5ccc(C#N)s5)C(C)(C)C)[nH]4)cc3)cc2)[nH]1 [Compound Y-45] |  |  | >100
11 | CC(C)[C@H](NC(=O)c1cccc(Cl)c1)c1ncc(-c2ccc(-c3ccc(-c4cnc([C@@H](NC(=O)c5cccc(Cl)c5)C(C)(C)C)[nH]4)cc3)cc2)[nH]1 [Compound Y-46] |  |  | >100
12 | CC(C)[C@H](NC(=O)c1ccc(C(F)(F)F)nc1)c1ncc(-c2ccc(-c3ccc(-c4cnc([C@@H](NC(=O)c5ccc(C(F)(F)F)nc5)C(C)(C)C)[nH]4)cc3)cc2)[nH]1 [Compound Y-47] |  |  | >100
13 | CC(C)[C@H](NC(=O)C(C)(C)F)c1ncc(-c2ccc(-c3ccc(-c4cnc([C@@H](NC(=O)C(C)(C)F)C(C)(C)C)[nH]4)cc3)cc2)[nH]1 [Compound Y-48] |  |  | >100
14 | COC(=O)N[C@H](C(=O)N1CCC[C@H]1c1nc(-c2ccc(-c3ccc(-c4c[nH]c([C@@H](NC(=O)C5CCC(F)(F)CC5)C(C)C)n4)cc3)cc2)c[nH]1)C(C)C [Compound Y-49] |  |  | >100
15 | CC(C)[C@H](NC(=O)OC(C)(C)C)c1ncc(-c2ccc(-c3ccc(-c4cnc([C@@H](NC(=O)C(C)(C)C)C(C)C)[nH]4)cc3)cc2)[nH]1 [Compound Y-51] |  |  | >100
16 | CC(C)[C@H](NC(=O)C1CCC(F)(F)CC1)c1ncc(-c2ccc(-c3ccc(-c4cnc([C@@H](NC(=O)C(C)(C)C)C(C)C)[nH]4)cc3)cc2)[nH]1 [Compound Y-52] |  |  | >100
17 | CC(C)[C@H](NC(=O)c1ccc(C(F)(F)F)nc1)c1ncc(-c2ccc(-c3ccc(-c4cnc([C@@H](NC(=O)C(C)(C)C)C(C)C)[nH]4)cc3)cc2)[nH]1 [Compound Y-53] |  |  | >100
18 | CC(C)[C@H](NC(=O)c1cccc(Cl)c1)c1ncc(-c2ccc(-c3ccc(-c4cnc([C@@H](NC(=O)C(C)(C)C)C(C)C)[nH]4)cc3)cc2)[nH]1 [Compound Y-54] |  |  | >100

Row | Structure (SMILES) | Fold-Synergistic G-1a (Y93H) [1] [fold] | Fold-Synergistic G-1a (L31V) [2] [fold] | Fold-Synergistic 1a (Q30E) [3] [fold]
19 | CC(C)[C@H](NC(=O)[C@@H]1CCCCO1)c1ncc(-c2ccc(-c3ccc(-c4cnc([C@@H](NC(=O)[C@H]5CCCCO5)C(C)C)[nH]4)cc3)cc2)[nH]1 [Compound Y-56] |  |  | >100
20 | Cc1ccc(S(=O)(=O)NC(c2ncc(-c3ccc(-c4ccc(-c5cnc([C@@H](NS(=O)(=O)c6ccc(C)cc6)C(C)C)[nH]5)cc4)cc3)[nH]2)C(C)C)cc1 (stereo partly shown) [Compound Y-58] |  |  | >100
21 | CC(C)[C@H](N[S@@+]([O-])C(C)(C)C)c1ncc(-c2ccc(-c3ccc(-c4cnc([C@@H](N[S@+]([O-])C(C)(C)C)C(C)C)[nH]4)cc3)cc2)[nH]1 [Compound Y-60] |  |  | >100
22 | CC(C)[C@H](N[S+]([O-])C(C)(C)C)c1ncc(-c2ccc(-c3ccc(-c4cnc([C@@H](N[S+]([O-])C(C)(C)C)C(C)C)[nH]4)cc3)cc2)[nH]1 (stereo partly shown) [Compound Y-61] |  |  | <10
23 | CC(C)(C)C(=O)N[C@H](c1ncc(-c2ccc(-c3ccc(-c4cnc([C@@H](NC(=O)C(C)(C)C)C(C)(C)CF)[nH]4)cc3)cc2)[nH]1)C(C)(C)CF [Compound Y-68] |  |  | >100
24 | CC(C)(CF)[C@H](NC(=O)C1CCC(F)(F)CC1)c1ncc(-c2ccc(-c3ccc(-c4cnc([C@@H](NC(=O)C5CCC(F)(F)CC5)C(C)(C)CF)[nH]4)cc3)cc2)[nH]1 [Compound Y-69] |  |  | >100
25 | CC(C)(C)[C@H](NC(=O)C1CCC(C(F)F)CC1)c1nc(-c2ccc(-c3ccc(-c4c[nH]c([C@@H](NC(=O)C5CCC(C(F)F)CC5)C(C)(C)C)n4)cc3)cc2)c[nH]1 (stereo partly shown) [Compound Y-71] |  |  | >100
26 | CC(C)(C)[C@H](NC(=O)c1ccccc1O)c1nc(-c2ccc(-c3ccc(-c4c[nH]c([C@@H](NC(=O)c5ccccc5O)C(C)(C)C)n4)cc3)cc2)c[nH]1 [Compound Y-72] |  |  | >100
27 | CC(C)(C)[C@H](NC(=O)Cc1ccccc1OC(F)(F)F)c1nc(-c2ccc(-c3ccc(-c4c[nH]c([C@@H](NC(=O)Cc5ccccc5OC(F)(F)F)C(C)(C)C)n4)cc3)cc2)c[nH]1 [Compound Y-73] |  |  | >100
28 | CC1(C(=O)NC(c2nc(-c3ccc(-c4ccc(-c5c[nH]c(C(NC(=O)C6(C)CC(F)(F)CCO6)C(C)(C)C)n5)cc4)cc3)c[nH]2)C(C)(C)C)CC(F)(F)CCO1 (stereo not shown) [Compound Y-75] |  |  | >100
29 | CC(C)(C)[C@H](NC(=O)[C@@]1(C)CC(F)(F)CO1)c1nc(-c2ccc(-c3ccc(-c4c[nH]c([C@@H](NC(=O)[C@@]5(C)CC(F)(F)CO5)C(C)(C)C)n4)cc3)cc2)c[nH]1 [Compound Y-77] |  |  | >100
30 | CC(C)(C)[C@H](NC(=O)[C@@]1(C)CCC(F)(F)CO1)c1ncc(-c2ccc(-c3ncc(-c4cnc([C@@H](NC(=O)[C@@]5(C)CCC(F)(F)CO5)C(C)(C)C)[nH]4)cn3)cc2)[nH]1 [Compound Y-84, (R)—N—((S)-1-(5-(2-(4-(2-((S)-1-((R)-5,5-difluoro-2-methyltetrahydro-2H-pyran-2-carboxamido)-2,2-dimethylpropyl)-1H-imidazol-5-yl)phenyl)pyrimidin-5-yl)-1H-imidazol-2-yl)-2,2-dimethylpropyl)-5,5-difluoro-2-methyltetrahydro-2H-pyran-2-carboxamide] |  |  | >100
31 | CC(C)(C)[C@H](NC(=O)[C@@]1(C)CCC(F)(F)CO1)c1nc(-c2ccc(-c3ccc(-c4c[nH]c([C@@H]5CCCN5C(=O)c5nccc6c(Cl)cccc56)n4)cc3)cc2)c[nH]1 [Compound Y-85, (R)—N—((S)-1-(4-(4′-(2-((S)-1-(5-chloroisoquinoline-1-carbonyl)pyrrolidin-2-yl)-1H-imidazol-4-yl)-[1,1′-biphenyl]-4-yl)-1H-imidazol-2-yl)-2,2-dimethylpropyl)-5,5-difluoro-2-methyltetrahydro-2H-pyran-2-carboxamide] |  |  | >100
32 | CC1(C(=O)NC(c2nc(-c3ccc(-c4ccc(-c5c[nH]c(C(NC(=O)C6(C)CCCCCO6)C(C)(C)C)n5)cc4)cc3)c[nH]2)C(C)(C)C)CCCCCO1 (stereo not shown) [Compound Y-91] |  |  | >100
33 | CC1(C(=O)NC(c2nc(-c3ccc(-c4ccc(-c5c[nH]c(C(NC(=O)C6(C)CCCC(F)(F)CO6)C(C)(C)C)n5)cc4)cc3)c[nH]2)C(C)(C)C)CCCC(F)(F)CO1 (stereo not shown) [Compound Y-92] |  |  | >100
34 | CC1(C(=O)N[C@H](c2ncc(-c3ccc(-c4ccc(-c5cnc([C@@H](NC(=O)C6(C)CCCCC6O)C(C)(C)C)[nH]5)cc4)cc3)[nH]2)C(C)(C)C)CCCCC1O (stereo partly shown) [Compound Y-97] |  |  | >100
35 | CC1([C@H](NC(=O)C2(C)CCCC[C@@H]2O)c2ncc(-c3ccc(-c4ccc(-c5cnc([C@@H](NC(=O)C6(C)CCCC[C@@H]6O)C6(C)CC6)[nH]5)cc4)cc3)[nH]2)CC1 (stereo partly shown) [Compound Y-116] |  |  | >100
36 | COC(c1ccccc1)C1(C(=O)N[C@H](c2nc(-c3ccc(-c4ccc(-c5c[nH]c([C@@H](NC(=O)C6(C(OC)c7ccccc7)CC6)C(C)(C)C)n5)cc4)cc3)c[nH]2)C(C)(C)C)CC1 (stereo partly shown) [Example N-137] |  |  | <10
